In brackets after ≈: the same amount, converted by molar mass. Like-named read-outs stand apart in the source and are kept apart here.
Key:
Type in all cases: cell-based
[1] = tested on: Pseudomonas aeruginosa (PRD-10); assay: Minimum inhibitory concentration (MIC) in nutrient agar, Pseudomonas aeruginosa PRD-10
Procedure: (§1) The antimicrobial activity of the compounds of the present invention is set forth as the minimum inhibitory concentration (MIC) for the active compounds and is determined for nine (9) bacteria, using nutrient agar, and seven (7) yeast and fungi, using malt yeast agar. This determination is conducted using a one percent solution of the test compound prepared in a mixture of acetone and water.
(§2) Nutrient agar is prepared at pH 6.8, representing a neutral medium, and at pH 8.2, representing an alkaline medium. The nutrient agars are prepared by adding 23 g of nutrient agar to one-liter of deionized water. In addition, the alkaline medium is prepared by adjusting a 0.04M solution of N-[tris-(hydroxymethyl)methyl]glycine buffered deionized water with concentrated sodium hydroxide to a pH of 8.5.
(§3) The test tubes containing the agar are cooled in a water bath until the temperature of the agar is 48° C. Then, an appropriate amount of the one percent solution of the test compound is added (except in the controls where no compound is added) to the respective test tubes so that the final concentrations are 500, […], 100, 50, 25, 10, 5, 2.5, 1.0 and zero parts per million of the test compound in the agar, thus having a known concentration of test compound dispersed therein. The contents of the test tubes are then transferred to respective petri plates. After drying for 24 hours, the petri plates containing nutrient agar are inoculated with bacteria and those containing malt yeast agar are inoculated with yeast and fungi.
(§4) The inoculation with bacteria is accomplished by using the following procedure. Twenty-four hour-cultures of each of the bacteria are prepared by incubating the respective bacteria in tubes containing nutrient broth for 24 hours at 30° C. in a shaker. Dilutions of each of the 24 hour-cultures are made so that nine separate suspensions (one for each of the nine test bacteria) are made, each containing 10^8 colony forming units (CFU) per mL of suspension of a particular bacteria. Aliquots of 0.3 mL of each of the bacterial suspensions are used to fill the individual wells of Steer's Replicator. For each microbial suspension, 0.3 mL was used to fill three wells (i.e., three wells of 0.3 mL each) so that for the nine different bacteria, 27 wells are filled. The Steer's Replicator is then used to inoculate both the neutral and alkaline pH nutrient agar petri plates.
(§5) The inoculated petri plates are incubated at 30° C. for 48 hours and then read to determine if the test compound which is incorporated into the agar prevented growth of the respective bacteria.

[2] = tested on: Aspergillus niger (An); assay: Minimum inhibitory concentration (MIC) in malt yeast agar, Aspergillus niger; details: pH 5.5; malt yeast agar, 30° C., 72 hours for fungi; read-out: Minimum Inhibitory Concentration, An
Procedure: as §1
(§6) Malt yeast agar is prepared at pH 5.5 by adding 3 g yeast extract and 45 g malt agar per liter of deionized water. The specific agar is dispensed in 30 mL aliquots into 25×200 mm test tubes, capped and autoclaved for 15 minutes at 115° C.
as §3
(§7) The inoculation with the yeast and fungi is accomplished as follows. Cultures of yeast and fungi are incubated for seven days on malt yeast agar at 30° C. These cultures are used to prepare suspensions by the following procedure. A suspension of each organism is prepared by adding 10 mL of sterile saline and 10 microliters of octylphenoxy polyethoxy ethanol to the agar slant of yeast or fungi. The sterile saline/octylphenoxy potyethoxy ethanol solution is then agitated with a sterile swab to suspend the microorganism grown on the slant. Each resulting suspension is diluted into sterile saline (1 part suspension: 9 parts sterile saline). Aliquots of these dilutions are placed in individual wells of Steer's Replicator and petri plates inoculated as previously described. The petri plates are incubated at 30° C. and read after 48 hours for yeast and 72 hours for fungi.

[3] = tested on: Salmonella choleraesuis (Se); assay: Minimum inhibitory concentration (MIC) in nutrient agar, Salmonella choleraesuis; details: Salmonella enterica, 48 h
Procedure: as §1, §2, §3, §4, §5

[4] = tested on: Candida albicans (Ca); assay: Minimum inhibitory concentration (MIC) in malt yeast agar, Candida albicans
Procedure: as §1, §6, §3, §7

[5] = tested on: Klebsiella pneumoniae (Kp); assay: Minimum inhibitory concentration (MIC) in nutrient agar, Klebsiella pneumoniae
Procedure: as §1, §2, §3, §4, §5

[6] = tested on: Staphylococcus aureus (Sa); assay: Minimum inhibitory concentration (MIC) in nutrient agar, Staphylococcus aureus
Procedure: as §1, §2, §3, §4, §5

[7] = tested on: Escherichia coli (Ec); assay: Minimum inhibitory concentration (MIC) in nutrient agar, Escherichia coli
Procedure: as §1, §2, §3, §4, §5

[8] = tested on: Penicillium chrysogenum (Pc); assay: Minimum inhibitory concentration (MIC) in malt yeast agar, Penicillium chrysogenum
Procedure: as §1, §6, §3, §7

[9] = tested on: Bacillus subtilis (Bs); assay: Minimum inhibitory concentration (MIC) in nutrient agar, Bacillus subtilis
Procedure: as §1, §2, §3, §4, §5

[10] = tested on: Aureobasidium pullulan (Ap); assay: Minimum inhibitory concentration (MIC) in malt yeast agar, Aureobasidium pullulan
Procedure: as §1, §6, §3, §7

[11] = tested on: Enterobacter aerogenes (Ea); assay: Minimum inhibitory concentration (MIC) in nutrient agar, Enterobacter aerogenes; details: Klebsiella aerogenes, 48 h
Procedure: as §1, §2, §3, §4, §5

[12] = tested on: Trichoderma viride (Tv); assay: Minimum inhibitory concentration (MIC) in malt yeast agar, Trichoderma viride
Procedure: as §1, §6, §3, §7

[13] = tested on: Saccharomyces cerevisiae (Sc); assay: Minimum inhibitory concentration (MIC) in malt yeast agar, Saccharomyces cerevisiae; details: pH 5.5, malt yeast agar, 30° C., 48 hours for yeast, read-out: Minimum Inhibitory Concentration, SC
Procedure: as §1, §6, §3, §7

[14] = tested on: Pseudomonas aeruginosa (Pa); assay: Minimum inhibitory concentration (MIC) in nutrient agar, Pseudomonas aeruginosa; details: 30° C., 48 hours, read-out: Minimum Inhibitory Concentration, Pa
Procedure: as §1, §2, §3, §4, §5

[15] = tested on: Proteus vulgaris (Pv); assay: Minimum inhibitory concentration (MIC) in nutrient agar, Proteus vulgaris; details: 48 h
Procedure: as §1, §2, §3, §4, §5

[16] = tested on: Fusarium oxysporum (Fo); assay: Minimum inhibitory concentration (MIC) in malt yeast agar, Fusarium oxysporum; details: pH 5.5; malt yeast agar, 30° C., 72 hours for fungi; read-out: Minimum Inhibitory Concentration, Fo
Procedure: as §1, §6, §3, §7

[17] = 48 h, pH 8.2, read-out: Minimum Inhibitory Concentration, PRD
[18] = pH 6.8, read-out: Minimum Inhibitory Concentration, SC
[19] = pH 8.2, read-out: Minimum Inhibitory Concentration, SC
[20] = pH 5.5, malt yeast agar, 30° C., 48 hours for yeast, read-out: Minimum Inhibitory Concentration, Ca
[21] = 48 h, pH 8.2, read-out: Minimum Inhibitory Concentration, Kp
[22] = pH 6.8, nutrient agar, 30° C., 48 hours, read-out: Minimum Inhibitory Concentration, Kp
[23] = 48 h, pH 8.2, read-out: Minimum Inhibitory Concentration, Sa
[24] = pH 6.8, nutrient agar, 30° C., 48 hours, read-out: Minimum Inhibitory Concentration, Sa
[25] = 48 h, pH 6.8, read-out: Minimum Inhibitory Concentration, Ec
[26] = pH 6.8, nutrient agar, 30° C., 48 hours, read-out: Minimum Inhibitory Concentration, Bs
[27] = pH 8.2, nutrient agar, 30° C., 48 hours, read-out: Minimum Inhibitory Concentration, Bs
[28] = pH 5.5, malt yeast agar, 30° C., read-out: Minimum Inhibitory Concentration, Ap
[29] = pH 6.8, read-out: Minimum Inhibitory Concentration, Ea
[30] = pH 8.2, read-out: Minimum Inhibitory Concentration, Ea
[31] = pH 5.5, malt yeast agar, 30° C., 72 hours for fungi, read-out: Minimum Inhibitory Concentration, Tv
[32] = pH 6.8, read-out: Minimum Inhibitory Concentration, Pv
[33] = pH 8.2, read-out: Minimum Inhibitory Concentration, Pv
[34] = 48 h, pH 6.8, read-out: Minimum Inhibitory Concentration, PRD
[35] = 48 h, pH 8.2, read-out: Minimum Inhibitory Concentration, Ec
[36] = 72 h, pH 5.5, read-out: Minimum Inhibitory Concentration, PC

SMILES | MIC [1, 17] [µg/mL] | MIC [2] [µg/mL] | MIC [3, 18] [µg/mL] | MIC [3, 19] [µg/mL] | MIC [4, 20] [µg/mL] | MIC [5, 21] [µg/mL] | MIC [5, 22] [µg/mL] | MIC [6, 23] [µg/mL] | MIC [6, 24] [µg/mL] | MIC [7, 25] [µg/mL] | MIC [9, 26] [µg/mL] | MIC [9, 27] [µg/mL] | MIC [10, 28] [µg/mL] | MIC [11, 29] [µg/mL] | MIC [11, 30] [µg/mL] | MIC [13] [µg/mL] | MIC ([14]; pH 8.2, nutrient agar) [µg/mL] | MIC [15, 32] [µg/mL] | MIC [15, 33] [µg/mL] | MIC [16] [µg/mL] | other results
N#CSCSc1nsnc1-c1ccc(F)cc1 [Example XXI, 4-(4-Fluorophenyl)-3-thiocyanatomethylthio-1,2,5-thiadiazole] | > 500 | 9 (≈ 31.8 µM) | 500 (≈ 1760 µM) | > 500 | 9 (≈ 31.8 µM) | > 500 | 500 (≈ 1760 µM) | > 500 | 500 (≈ 1760 µM) | 500 (≈ 1760 µM) | 9 (≈ 31.8 µM) | 100 (≈ 353 µM) | 9 (≈ 31.8 µM) | 500 (≈ 1760 µM) | > 500 | 9 (≈ 31.8 µM) | > 500 | 500 (≈ 1760 µM) | > 500 | 9 (≈ 31.8 µM) | MIC ([1]; pH 6.8, nutrient agar, 30° C., 48 hours, read-out: Minimum Inhibitory Concentration, PRD): 250 µg/mL (≈ 882 µM); MIC ([7]; pH 8.2, nutrient agar, 30° C., 48 hours, read-out: Minimum Inhibitory Concentration, Ec): 250 µg/mL (≈ 882 µM); MIC ([8]; pH 5.5, malt yeast agar, 30° C., 72 hours for fungi, read-out: Minimum Inhibitory Concentration, PC): 9 µg/mL (≈ 31.8 µM); MIC [12, 31]: 25 µg/mL (≈ 88.2 µM)
N#CSc1nsnc1-c1ccc(Cl)cc1 [Example II, 4-(4-Chlorophenyl)-3-thiocyanato-1,2,5-thiadiazole] | > 500 | < 10 | > 500 | 500 (≈ 1970 µM) | < 10 |  |  | 500 (≈ 1970 µM) | 250 (≈ 985 µM) | 50 (≈ 197 µM) | 250 (≈ 985 µM) |  | < 10 | > 500 | > 500 | < 10 | 500 (≈ 1970 µM) | > 500 | > 500 | < 10 | MIC [1, 34]: > 500 µg/mL; MIC ([5]; 48 h, pH 6.8, read-out: Minimum Inhibitory Concentration, Kp): 50 µg/mL (≈ 197 µM); MIC ([5]; pH 8.2, nutrient agar, 30° C., 48 hours, read-out: Minimum Inhibitory Concentration, Kp): 250 µg/mL (≈ 985 µM); MIC [7, 35]: > 500 µg/mL; MIC [8, 36]: < 10 µg/mL; MIC ([9]; 48 h, pH 8.2, read-out: Minimum Inhibitory Concentration, Bs): 500 µg/mL (≈ 1970 µM); MIC ([12]; 72 h, pH 5.5, read-out: Minimum Inhibitory Concentration, Tv): < 10 µg/mL; MIC ([14]; pH 6.8, nutrient agar): > 500 µg/mL
N#CSCSc1nsnc1-c1cccc(Cl)c1 [Example XIX, 4-(3-Chlorophenyl)-3-thiocyanatomethylthio-1,2,5-thiadiazole] | > 500 | 5 (≈ 16.7 µM) | 500 (≈ 1670 µM) | > 500 |  | > 500 | 500 (≈ 1670 µM) |  | 9 (≈ 30 µM) | 500 (≈ 1670 µM) | 9 (≈ 30 µM) | 9 (≈ 30 µM) |  | 500 (≈ 1670 µM) | > 500 | 1 (≈ 3.34 µM) | > 500 | 500 (≈ 1670 µM) | > 500 | 500 (≈ 1670 µM) | MIC [1, 34]: 500 µg/mL (≈ 1670 µM); MIC ([4]; 48 h, pH 5.5, read-out: Minimum Inhibitory Concentration, Ca): 25 µg/mL (≈ 83.4 µM); MIC ([6]; pH 8.2, nutrient agar, 30° C., 48 hours, read-out: Minimum Inhibitory Concentration, Sa): 9 µg/mL (≈ 30 µM); MIC [7, 35]: 500 µg/mL (≈ 1670 µM); MIC [8, 36]: 2.5 µg/mL (≈ 8.34 µM); MIC ([10]; pH 5.5, read-out: Minimum Inhibitory Concentration, Ap): 2.5 µg/mL (≈ 8.34 µM); MIC [12, 31]: > 500 µg/mL; MIC ([14]; pH 6.8, nutrient agar): 500 µg/mL (≈ 1670 µM)

Reference: US5488060A, “Substituted thiadiazoles, compositions containing them and their use as antimicrobial and marine antifouling agents” (The Dow Chemical Company, priority 1994, dated 1996)
